Reference: article PMC4579270, “Identification and Characterization of an Irreversible Inhibitor of CDK2” (Chemistry & Biology, 2015)

Key:
Test in all cases: Dundee protein kinase screen
Format in all cases: biochemical
MST2 = target: T1, MST2 (Homo sapiens, UniProt Q13188); settings: MST2, 1µM; read-out: %Remaining activity at 1µM NU6300
T1 sequence (Q13188 1-491): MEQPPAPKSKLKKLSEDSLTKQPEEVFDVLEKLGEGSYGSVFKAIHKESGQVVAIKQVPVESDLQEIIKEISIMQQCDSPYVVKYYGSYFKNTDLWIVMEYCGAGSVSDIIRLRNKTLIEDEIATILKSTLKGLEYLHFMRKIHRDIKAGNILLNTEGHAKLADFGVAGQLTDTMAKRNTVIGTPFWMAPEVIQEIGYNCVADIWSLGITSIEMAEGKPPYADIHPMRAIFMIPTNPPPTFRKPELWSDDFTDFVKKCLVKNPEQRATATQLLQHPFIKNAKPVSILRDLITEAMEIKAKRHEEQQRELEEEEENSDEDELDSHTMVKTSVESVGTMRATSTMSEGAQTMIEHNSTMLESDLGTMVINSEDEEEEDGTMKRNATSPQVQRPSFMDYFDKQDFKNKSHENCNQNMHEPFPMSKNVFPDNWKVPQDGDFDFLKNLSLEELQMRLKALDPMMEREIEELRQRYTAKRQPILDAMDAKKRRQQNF
Procedure, shortened: (§1)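 Selectivity panel of 131 protein kinases, inhibitor tested at a single concentration of 1 µM; values are % kinase activity remaining, mean of duplicates. Re-test of selected kinases used 0.5 µM in the standard format and again after a 4 hour pre-incubation with the inhibitor.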

MNK1 = MNK1 (Homo sapiens, UniProt Q9BUB5); settings: MNK1, 1µM; read-out: %Remaining activity at 1µM NU6300
Procedure, shortened: as §1

BRSK1 = BRSK1 (Homo sapiens, UniProt Q8TDC3); settings: BRSK1, 1µM; read-out: %Remaining activity at 1µM NU6300
Procedure, shortened: as §1

TIE2 = TIE2 (Homo sapiens, UniProt Q02763); settings: TIE2, 1µM; read-out: %Remaining activity at 1µM NU6300
Procedure, shortened: as §1

SGK1 = SGK1 (Homo sapiens, UniProt O00141); settings: SGK1, 1µM; read-out: %Remaining activity at 1µM NU6300
Procedure, shortened: as §1

SIK3 = SIK3 (Homo sapiens, UniProt Q9Y2K2); settings: SIK3, 1µM; read-out: %Remaining activity at 1µM NU6300
Procedure, shortened: as §1

EPH-B3 = target: T2, EPH-B3 (Homo sapiens, UniProt P54753); settings: EPH-B3, 1µM; read-out: %Remaining activity at 1µM NU6300
T2 sequence (P54753 34-998): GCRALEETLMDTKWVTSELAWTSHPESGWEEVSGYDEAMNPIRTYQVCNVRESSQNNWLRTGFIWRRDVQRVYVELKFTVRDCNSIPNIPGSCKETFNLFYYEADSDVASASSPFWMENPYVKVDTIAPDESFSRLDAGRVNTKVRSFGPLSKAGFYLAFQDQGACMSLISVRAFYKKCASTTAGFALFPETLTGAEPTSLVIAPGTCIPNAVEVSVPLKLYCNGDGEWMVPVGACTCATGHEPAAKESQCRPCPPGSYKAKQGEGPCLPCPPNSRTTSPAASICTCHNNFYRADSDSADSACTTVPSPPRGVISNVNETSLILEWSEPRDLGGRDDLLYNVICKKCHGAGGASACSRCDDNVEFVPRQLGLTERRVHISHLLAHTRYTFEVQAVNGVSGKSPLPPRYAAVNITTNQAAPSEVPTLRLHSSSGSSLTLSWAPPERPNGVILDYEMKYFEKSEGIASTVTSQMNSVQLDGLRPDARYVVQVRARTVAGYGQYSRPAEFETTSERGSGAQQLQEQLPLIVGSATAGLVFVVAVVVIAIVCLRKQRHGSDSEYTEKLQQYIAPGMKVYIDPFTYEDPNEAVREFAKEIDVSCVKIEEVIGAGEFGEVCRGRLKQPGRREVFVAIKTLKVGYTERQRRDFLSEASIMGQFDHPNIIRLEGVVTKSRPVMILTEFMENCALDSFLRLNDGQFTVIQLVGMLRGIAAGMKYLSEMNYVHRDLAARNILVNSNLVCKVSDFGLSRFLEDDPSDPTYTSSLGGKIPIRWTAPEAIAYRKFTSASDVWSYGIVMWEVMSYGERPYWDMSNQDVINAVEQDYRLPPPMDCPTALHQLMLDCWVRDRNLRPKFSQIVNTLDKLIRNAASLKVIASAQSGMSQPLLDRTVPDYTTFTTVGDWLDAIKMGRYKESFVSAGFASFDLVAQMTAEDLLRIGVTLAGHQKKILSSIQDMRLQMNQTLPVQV
Procedure, shortened: as §1

PIM3 = PIM3 (Homo sapiens, UniProt Q86V86); settings: PIM3, 1µM; read-out: %Remaining activity at 1µM NU6300
Procedure, shortened: as §1

MARK3 = MARK3 (Homo sapiens, UniProt P27448); settings: MARK3, 1µM; read-out: %Remaining activity at 1µM NU6300
Procedure, shortened: as §1

SGK1, sequence (O00141 whole entry): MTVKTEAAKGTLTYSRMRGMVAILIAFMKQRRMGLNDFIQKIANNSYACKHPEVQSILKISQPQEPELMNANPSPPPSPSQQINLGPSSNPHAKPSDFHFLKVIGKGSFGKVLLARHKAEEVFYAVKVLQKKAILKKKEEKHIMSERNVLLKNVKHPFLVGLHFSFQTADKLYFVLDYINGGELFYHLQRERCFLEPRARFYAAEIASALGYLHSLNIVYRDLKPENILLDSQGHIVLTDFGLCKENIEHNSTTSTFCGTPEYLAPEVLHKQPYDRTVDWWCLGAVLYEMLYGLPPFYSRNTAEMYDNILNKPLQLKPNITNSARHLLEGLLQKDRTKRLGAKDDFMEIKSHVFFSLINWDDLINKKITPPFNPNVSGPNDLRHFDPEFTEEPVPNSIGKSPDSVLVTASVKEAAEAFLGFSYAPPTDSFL
SIK3, sequence (Q9Y2K2 whole entry): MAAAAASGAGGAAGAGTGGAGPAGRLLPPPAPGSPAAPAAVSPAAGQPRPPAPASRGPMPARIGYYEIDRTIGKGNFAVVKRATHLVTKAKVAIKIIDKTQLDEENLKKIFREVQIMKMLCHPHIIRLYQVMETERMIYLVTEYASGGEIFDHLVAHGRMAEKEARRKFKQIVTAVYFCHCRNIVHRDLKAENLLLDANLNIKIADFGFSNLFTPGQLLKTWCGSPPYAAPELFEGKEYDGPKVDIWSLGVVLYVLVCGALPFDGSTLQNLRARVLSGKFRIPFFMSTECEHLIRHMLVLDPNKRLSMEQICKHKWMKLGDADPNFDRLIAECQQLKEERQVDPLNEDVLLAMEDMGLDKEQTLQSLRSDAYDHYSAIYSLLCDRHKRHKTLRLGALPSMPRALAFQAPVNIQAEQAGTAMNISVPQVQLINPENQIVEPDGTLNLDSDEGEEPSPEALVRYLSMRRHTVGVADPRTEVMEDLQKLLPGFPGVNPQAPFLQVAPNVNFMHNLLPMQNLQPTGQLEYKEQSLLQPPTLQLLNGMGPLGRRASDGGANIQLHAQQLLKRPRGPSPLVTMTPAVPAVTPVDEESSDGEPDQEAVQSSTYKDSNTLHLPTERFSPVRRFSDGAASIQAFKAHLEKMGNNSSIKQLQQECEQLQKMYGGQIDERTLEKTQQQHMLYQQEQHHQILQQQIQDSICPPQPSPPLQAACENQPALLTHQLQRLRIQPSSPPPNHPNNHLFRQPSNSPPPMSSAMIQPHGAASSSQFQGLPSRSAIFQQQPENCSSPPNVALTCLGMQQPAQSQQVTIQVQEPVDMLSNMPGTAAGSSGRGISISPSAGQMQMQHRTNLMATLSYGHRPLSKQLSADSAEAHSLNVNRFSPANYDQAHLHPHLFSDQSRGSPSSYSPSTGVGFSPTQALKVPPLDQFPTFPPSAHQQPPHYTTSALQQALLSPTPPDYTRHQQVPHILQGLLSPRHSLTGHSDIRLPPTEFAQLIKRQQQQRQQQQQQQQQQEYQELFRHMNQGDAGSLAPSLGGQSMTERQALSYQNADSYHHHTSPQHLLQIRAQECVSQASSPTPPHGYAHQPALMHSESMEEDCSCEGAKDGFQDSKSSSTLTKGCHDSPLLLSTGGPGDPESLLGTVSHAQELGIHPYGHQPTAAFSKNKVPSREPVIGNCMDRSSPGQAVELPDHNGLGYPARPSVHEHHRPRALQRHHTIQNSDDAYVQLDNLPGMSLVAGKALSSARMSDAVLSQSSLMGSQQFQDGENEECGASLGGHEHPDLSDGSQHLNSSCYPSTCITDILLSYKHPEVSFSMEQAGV
MARK3, sequence (P27448 whole entry): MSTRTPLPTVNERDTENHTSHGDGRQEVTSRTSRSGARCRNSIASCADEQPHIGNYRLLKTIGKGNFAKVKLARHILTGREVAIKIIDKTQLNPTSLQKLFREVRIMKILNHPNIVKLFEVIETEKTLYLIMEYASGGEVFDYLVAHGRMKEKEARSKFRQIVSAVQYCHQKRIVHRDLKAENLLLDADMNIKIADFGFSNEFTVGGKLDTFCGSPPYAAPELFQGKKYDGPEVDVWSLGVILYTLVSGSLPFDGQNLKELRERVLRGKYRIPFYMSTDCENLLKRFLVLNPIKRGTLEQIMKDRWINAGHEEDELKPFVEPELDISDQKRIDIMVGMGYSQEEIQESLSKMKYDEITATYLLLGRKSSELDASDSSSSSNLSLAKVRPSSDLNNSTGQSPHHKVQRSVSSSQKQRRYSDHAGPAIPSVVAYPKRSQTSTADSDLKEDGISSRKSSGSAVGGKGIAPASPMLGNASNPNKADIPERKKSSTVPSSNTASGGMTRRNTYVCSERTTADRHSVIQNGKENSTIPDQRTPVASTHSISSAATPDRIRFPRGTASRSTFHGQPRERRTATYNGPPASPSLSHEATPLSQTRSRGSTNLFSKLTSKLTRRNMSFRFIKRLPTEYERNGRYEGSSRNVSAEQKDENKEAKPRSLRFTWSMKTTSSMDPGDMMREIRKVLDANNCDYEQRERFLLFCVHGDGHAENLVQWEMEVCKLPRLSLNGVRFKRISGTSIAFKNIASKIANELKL
TIE2, sequence (Q02763 23-1124): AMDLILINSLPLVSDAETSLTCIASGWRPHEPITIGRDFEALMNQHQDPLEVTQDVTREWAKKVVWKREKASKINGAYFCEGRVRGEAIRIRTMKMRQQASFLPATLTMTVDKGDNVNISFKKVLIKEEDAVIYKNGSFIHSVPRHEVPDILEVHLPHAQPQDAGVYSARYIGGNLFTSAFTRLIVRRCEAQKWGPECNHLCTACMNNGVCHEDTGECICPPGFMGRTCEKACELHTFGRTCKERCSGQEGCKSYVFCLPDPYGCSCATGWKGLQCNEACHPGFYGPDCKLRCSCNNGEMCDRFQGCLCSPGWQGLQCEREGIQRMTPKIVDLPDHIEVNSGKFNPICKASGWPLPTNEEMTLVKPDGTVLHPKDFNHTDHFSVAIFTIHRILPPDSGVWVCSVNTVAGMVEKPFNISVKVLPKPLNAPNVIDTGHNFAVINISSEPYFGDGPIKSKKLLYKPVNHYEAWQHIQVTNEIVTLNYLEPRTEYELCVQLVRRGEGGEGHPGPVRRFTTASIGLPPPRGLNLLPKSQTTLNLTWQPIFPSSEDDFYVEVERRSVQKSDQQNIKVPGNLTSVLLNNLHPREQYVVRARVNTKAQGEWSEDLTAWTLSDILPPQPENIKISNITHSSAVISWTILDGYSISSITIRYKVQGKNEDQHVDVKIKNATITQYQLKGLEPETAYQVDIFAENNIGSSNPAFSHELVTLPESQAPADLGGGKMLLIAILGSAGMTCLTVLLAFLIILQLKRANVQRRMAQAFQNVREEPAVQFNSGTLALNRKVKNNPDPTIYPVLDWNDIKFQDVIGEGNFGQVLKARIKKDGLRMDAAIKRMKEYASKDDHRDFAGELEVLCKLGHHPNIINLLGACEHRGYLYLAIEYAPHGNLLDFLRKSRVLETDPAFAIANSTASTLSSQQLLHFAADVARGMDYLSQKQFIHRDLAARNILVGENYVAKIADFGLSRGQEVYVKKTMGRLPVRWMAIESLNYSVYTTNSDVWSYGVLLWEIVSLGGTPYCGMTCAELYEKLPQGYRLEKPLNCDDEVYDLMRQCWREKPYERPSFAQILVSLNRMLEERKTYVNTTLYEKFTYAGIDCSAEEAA
BRSK1, sequence (Q8TDC3 whole entry): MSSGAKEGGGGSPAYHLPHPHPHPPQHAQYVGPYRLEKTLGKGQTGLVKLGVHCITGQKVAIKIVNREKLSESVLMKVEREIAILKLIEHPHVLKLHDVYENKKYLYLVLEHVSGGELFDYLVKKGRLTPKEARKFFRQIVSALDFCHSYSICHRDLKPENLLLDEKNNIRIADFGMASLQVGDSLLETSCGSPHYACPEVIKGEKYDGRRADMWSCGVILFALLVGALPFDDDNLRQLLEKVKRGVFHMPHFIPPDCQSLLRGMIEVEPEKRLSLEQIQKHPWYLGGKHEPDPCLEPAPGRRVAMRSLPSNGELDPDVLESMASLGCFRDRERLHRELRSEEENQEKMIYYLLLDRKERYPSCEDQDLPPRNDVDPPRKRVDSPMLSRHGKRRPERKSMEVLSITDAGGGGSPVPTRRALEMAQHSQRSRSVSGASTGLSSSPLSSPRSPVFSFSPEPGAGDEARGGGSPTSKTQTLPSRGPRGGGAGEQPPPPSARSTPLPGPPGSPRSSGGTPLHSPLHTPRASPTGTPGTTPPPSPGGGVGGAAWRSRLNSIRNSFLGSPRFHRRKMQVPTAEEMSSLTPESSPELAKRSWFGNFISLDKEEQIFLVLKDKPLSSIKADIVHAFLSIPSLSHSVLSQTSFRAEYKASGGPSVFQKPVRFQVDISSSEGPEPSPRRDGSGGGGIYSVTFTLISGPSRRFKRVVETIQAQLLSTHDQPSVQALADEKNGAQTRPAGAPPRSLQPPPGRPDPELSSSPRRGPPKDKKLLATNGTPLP
MNK1, sequence (Q9BUB5 whole entry): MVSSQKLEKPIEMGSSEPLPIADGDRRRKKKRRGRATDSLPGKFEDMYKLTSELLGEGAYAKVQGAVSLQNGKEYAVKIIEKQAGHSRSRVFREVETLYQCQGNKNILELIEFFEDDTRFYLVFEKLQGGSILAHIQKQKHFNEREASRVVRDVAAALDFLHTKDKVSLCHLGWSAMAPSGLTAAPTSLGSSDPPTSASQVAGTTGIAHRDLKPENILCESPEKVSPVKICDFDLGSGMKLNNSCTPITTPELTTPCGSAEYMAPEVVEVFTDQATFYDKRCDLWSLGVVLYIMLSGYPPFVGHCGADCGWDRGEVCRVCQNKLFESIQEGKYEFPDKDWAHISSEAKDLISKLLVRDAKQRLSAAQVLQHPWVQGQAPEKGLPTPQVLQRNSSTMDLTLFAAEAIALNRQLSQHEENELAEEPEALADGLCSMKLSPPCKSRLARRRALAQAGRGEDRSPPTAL

C=CS(=O)(=O)c1ccc(Nc2nc(OCC3CCCCC3)c3nc[nH]c3n2)cc1 [NU6300, 6-(cyclohexylmethoxy)-N-(4-(vinylsulfonyl)phenyl)-9H-purin-2-amine]
remaining activity at 1 µM (MST2): 41%
remaining activity at 1 µM (MNK1): 102%
remaining activity at 1 µM (BRSK1): 79%
remaining activity at 1 µM (TIE2): 122%
remaining activity at 1 µM (SGK1): 93%
remaining activity at 1 µM (SIK3): 76%
remaining activity at 1 µM (EPH-B3): 14%
remaining activity at 1 µM (PIM3): 56%
remaining activity at 1 µM (MARK3): 71%
